In US20050002983A1, “Devices, methods, and compositions to prevent restenosis” (priority 2003, published 2005):

Assays:
[1] = system: Human aortic smooth muscle cells; test: IC50 by CellTiter-Glo Luminescent Cell Viability Assay, smooth muscle cells; format: cell-based
Experimental: The cells were seeded in duplicate, in opaque-walled 96-well microtiter plates at a cell density of 3,000 cells per well and allowed to attach overnight. Serial dilutions of each drug were added, and the cells were incubated for 96 hours. The IC50 values for the drugs was determined using the CellTiter-Glo Luminescent Cell Viability Assay (Promega, Madison, Wis.), which correlates with the number of live cells.

endothelial cells = test: Cytotoxicity IC50 against endothelial cells; format: cell-based
Solubility in PBS = format: physicochemical
[2] = system: Human aortic smooth muscle cells (AoSMCs); test: MTS cell viability/proliferation assay, AoSMC, Days 0-5; settings: for dose-response of cell viability (optical density): 10, 100, 1,000 nM, SMCs and HUVECs, Days 0-5
Experimental: Human aortic smooth muscle cells (“AoSMCs”) and human umbilical vein endothelial cells (“HUVECs”) were plated on 96-well culture plates at a density of about 10,000 cells per square centimeter (10,000 cells/cm^2). The density was determined using growth curves determined by calculating the average absolute optical densities (“ODs”, defined as cellular OD—media only OD) for each plating concentration, for each day, and each cell type (AoSMC or HUVEC) over a five-day time period.
Prior to experiments, the AoSMCs and HUVECS were thawed and independently propagated through two- or three population doublings following Clonetics recommendations and standard cell culture techniques. Clonetics Growth Media and Reagents were used without alteration in all aspects of the study described herein unless otherwise noted. […] SMGM contained: 500 ml SMBM-2 basal media, 5% FBS, and all recommended singlequot growth supplements (provided with SMGM-2 bulletkit) ECGM contained: 500 ml EBM basal media, 2% FBS, and all recommended singlequot growth supplements (provided with EGM-bulletkit).
After initial plating all 96-well plates were placed in a standard 37° C., 5% CO2 incubator. Conditions, including media, were not changed except as detailed below. For consecutive 24-hour time-periods, from Day 1 to Day 5, a single 96-well plate was removed from the incubator.
Cell Preparation Source cells were selected at 70-80% confluency of the second or third population doubling since initial thaw. In order to synchronize cell cycle, source cells were changed from standard growth media to media containing 1% serum twenty-four hours prior to experiment (other growth factors were unchanged). On Day 0 of the experiment, source cells were removed from culture dishes by trypsinization (0.05×1 min.-2 min), quantified by hemacytometer after centrifuge (800 RPM×5 min.), and re-suspended in media to obtain a stock solution of about 25,000 cells/ml.
The drugs were dissolved in dimethylsulfoxide (“DMSO”) solvent to make stock solutions, which were then diluted serially in media to three study concentrations (10 nM; 100 nM; and 1,000 nM). The drugs at three concentration each, solvent without drug at three concentrations, and standard media were added independently to cells on the first day of the study only. Cells in two columns (16 wells) for each cell type on each day will not receive drug and serve as internal controls. Cellular viability and proliferation was assessed using the MTS assay for each cell type at each of the six time points.
On Day 1, six hours after initial plating, the media was removed from all wells by vacuum suction; and with the appropriate growth media-drug solution for each of three drugs at three concentrations described above was added to the wells. […]

[3] = Release kinetics of epothilone D from polymer matrices; format: physicochemical

## C=CCNC1=C2C[C@@H](C)C[C@H](OC)[C@H](O)[C@@H](C)/C=C(\C)[C@H](OC(N)=O)[C@@H](OC)/C=C\C=C(/C)C(=O)NC(=CC1=O)C2=O [17-AAG, 17-allylamino-17-desmethoxygeldanamycin]
[1]; smooth muscle cells
  IC50: ~10 nM
Endothelial cells
  IC50: 350 nM
Solubility in PBS
  solubility: 60 micrograms/mL
[2]
  dose-response of cell viability (optical density): dose-response characteristics consistent with utility to reduce or prevent restenosis

## CO[C@H]1/C=C\C=C(/C)C(=O)NC2=CC(=O)C(NCCN(C)C)=C(C[C@@H](C)C[C@H](OC)[C@H](O)[C@@H](C)/C=C(\C)[C@@H]1OC(N)=O)C2=O [17-DMAG, 17-[2-(dimethylamino)ethylamino]-17-desmethoxygeldanamycin]
[2]
  dose-response of cell viability (optical density): dose-response characteristics consistent with utility to reduce or prevent restenosis
[2]; AoSMC vs HUVEC viability, 10-1,000 nM
  selectivity for SMCs over ECs: relative selectivity for SMCs over ECs

## C/C1=C/C[C@@H](/C(C)=C/c2csc(C)n2)OC(=O)C[C@H](O)C(C)(C)C(=O)[C@H](C)[C@@H](O)[C@@H](C)CCC1 [epothilone D]
[3]; from poly(lactide)
  release rate from polymer matrix: approximately 6 micrograms/day
[3]; from polyurethane
  release rate from polymer matrix: 1.58 micrograms/day
[2]
  dose-response of cell viability (optical density): dose-response characteristics consistent with utility to reduce or prevent restenosis

## COC1=C2C[C@@H](C)C[C@H](OC)[C@H](O)[C@@H](C)/C=C(\C)[C@H](OC(N)=O)[C@@H](OC)/C=C\C=C(/C)C(=O)NC(=CC1=O)C2=O [geldanamycin, reference compound]
[1]; Homo sapiens
  IC50: ~0.9 nM
